What was measured:
Test in all cases: relative viability (nuclei count vs DMSO), 5 days (fraction); higher = more cells survive
VE-821 + Bortezomib = compound: CS(=O)(=O)c1ccc(-c2cnc(N)c(C(=O)Nc3ccccc3)n2)cc1 [VE-821] + CC(C)C[C@H](NC(=O)[C@H](Cc1ccccc1)NC(=O)c1cnccn1)B(O)O [Bortezomib] (partner 0.002 µM)
In short: (§1)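 After 5 days of treatment, lung cancer cells in 1536-well plates were fixed and stained in a single step (final 0.05% Triton X-100, 1% formaldehyde, 1 ug/ml Hoechst) and their nuclei counted on 4× images. Treatment had been applied by pin tool the day after seeding as one drug alone or as a fixed anchor-drug dose with five library-drug doses (not always all listed) in √10 steps. Relative viability is the nuclei count of treated wells divided by that of vehicle wells, and values are medians of duplicate plates.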

VE-821 + Phenformin = compound: CS(=O)(=O)c1ccc(-c2cnc(N)c(C(=O)Nc3ccccc3)n2)cc1 [VE-821] + N=C(N)NC(=N)NCCc1ccccc1 [Phenformin] (partner 250 µM)
In short: as §1

Ruxolitinib + Dasatinib = compound: N#CC[C@H](C1CCCC1)n1cc(-c2ncnc3[nH]ccc23)cn1 [Ruxolitinib] + Cc1nc(Nc2ncc(C(=O)Nc3c(C)cccc3Cl)s2)cc(N2CCN(CCO)CC2)n1 [Dasatinib] (partner 0.075 µM)
In short: as §1

VE-821 + Linsitinib = compound: CS(=O)(=O)c1ccc(-c2cnc(N)c(C(=O)Nc3ccccc3)n2)cc1 [VE-821] + C[C@]1(O)C[C@@H](c2nc(-c3ccc4ccc(-c5ccccc5)nc4c3)c3c(N)nccn32)C1 [Linsitinib] (partner 1 µM)
In short: as §1

COR-L 105 was tested, and the relative viability (VE-821 + Bortezomib; first compound 0.08 µM) was 0.746, the relative viability (VE-821 + Bortezomib; first compound 0.253 µM) was 0.841 and the relative viability (VE-821 + Bortezomib; first compound 0.8 µM) was 0.677. For the same cell line, the relative viability (VE-821 + Bortezomib; first compound 2.53 µM) was 0.738, the relative viability (VE-821 + Bortezomib; first compound 8 µM) was 0.467 and the relative viability (VE-821 + Phenformin; first compound 0.08 µM) was 0.519. For the same cell line, the relative viability (VE-821 + Phenformin; first compound 0.253 µM) was 0.325, the relative viability (VE-821 + Phenformin; first compound 0.8 µM) was 0.472 and the relative viability (VE-821 + Phenformin; first compound 2.53 µM) was 0.387. The relative viability (VE-821 + Phenformin; first compound 8 µM) was 0.343, the relative viability (Ruxolitinib + Dasatinib; first compound 0.08 µM) was 0.313 and the relative viability (Ruxolitinib + Dasatinib; first compound 0.253 µM) was 0.295. For the same cell line, the relative viability (Ruxolitinib + Dasatinib; first compound 0.8 µM) was 0.326, the relative viability (Ruxolitinib + Dasatinib; first compound 2.53 µM) was 0.214 and the relative viability (Ruxolitinib + Dasatinib; first compound 8 µM) was 0.23. For the same cell line, the relative viability (VE-821 + Linsitinib; first compound 0.08 µM) was 0.944, the relative viability (VE-821 + Linsitinib; first compound 0.253 µM) was 0.885 and the relative viability (VE-821 + Linsitinib; first compound 0.8 µM) was 0.75. For the same cell line, the relative viability (VE-821 + Linsitinib; first compound 2.53 µM) was 0.776 and the relative viability (VE-821 + Linsitinib; first compound 8 µM) was 0.496.

Cell Line EMC-BAC-2 has a relative viability (VE-821 + Bortezomib; first compound 0.08 µM) of 1.12, a relative viability (VE-821 + Bortezomib; first compound 0.253 µM) of 1.08 and a relative viability (VE-821 + Bortezomib; first compound 0.8 µM) of 1.15. It also gave a relative viability (VE-821 + Bortezomib; first compound 2.53 µM) of 1.11, a relative viability (VE-821 + Bortezomib; first compound 8 µM) of 1.04 and a relative viability (VE-821 + Phenformin; first compound 0.08 µM) of 0.569. The relative viability (VE-821 + Phenformin; first compound 0.253 µM) was 0.475, the relative viability (VE-821 + Phenformin; first compound 0.8 µM) was 0.577 and the relative viability (VE-821 + Phenformin; first compound 2.53 µM) was 0.528. It also gave a relative viability (VE-821 + Phenformin; first compound 8 µM) of 0.463, a relative viability (Ruxolitinib + Dasatinib; first compound 0.08 µM) of 0.321 and a relative viability (Ruxolitinib + Dasatinib; first compound 0.253 µM) of 0.283. The relative viability (Ruxolitinib + Dasatinib; first compound 0.8 µM) was 0.308, the relative viability (Ruxolitinib + Dasatinib; first compound 2.53 µM) was 0.275 and the relative viability (Ruxolitinib + Dasatinib; first compound 8 µM) was 0.219. For the same cell line, the relative viability (VE-821 + Linsitinib; first compound 0.08 µM) was 0.881, the relative viability (VE-821 + Linsitinib; first compound 0.253 µM) was 0.817 and the relative viability (VE-821 + Linsitinib; first compound 0.8 µM) was 0.849. For the same cell line, the relative viability (VE-821 + Linsitinib; first compound 2.53 µM) was 0.852 and the relative viability (VE-821 + Linsitinib; first compound 8 µM) was 0.841.

For NCI-H1666, the relative viability (VE-821 + Bortezomib; first compound 0.08 µM) was 0.942, the relative viability (VE-821 + Bortezomib; first compound 0.253 µM) was 0.864 and the relative viability (VE-821 + Bortezomib; first compound 0.8 µM) was 0.755. It also gave a relative viability (VE-821 + Bortezomib; first compound 2.53 µM) of 0.736, a relative viability (VE-821 + Bortezomib; first compound 8 µM) of 0.549 and a relative viability (VE-821 + Phenformin; first compound 0.08 µM) of 0.578. For the same cell line, the relative viability (VE-821 + Phenformin; first compound 0.253 µM) was 0.536, the relative viability (VE-821 + Phenformin; first compound 0.8 µM) was 0.602 and the relative viability (VE-821 + Phenformin; first compound 2.53 µM) was 0.6. For the same cell line, the relative viability (VE-821 + Phenformin; first compound 8 µM) was 0.535, the relative viability (Ruxolitinib + Dasatinib; first compound 0.08 µM) was 0.869 and the relative viability (Ruxolitinib + Dasatinib; first compound 0.253 µM) was 0.757. For the same cell line, the relative viability (Ruxolitinib + Dasatinib; first compound 0.8 µM) was 0.838, the relative viability (Ruxolitinib + Dasatinib; first compound 2.53 µM) was 0.76 and the relative viability (Ruxolitinib + Dasatinib; first compound 8 µM) was 0.528. It also gave a relative viability (VE-821 + Linsitinib; first compound 0.08 µM) of 0.765, a relative viability (VE-821 + Linsitinib; first compound 0.253 µM) of 0.884 and a relative viability (VE-821 + Linsitinib; first compound 0.8 µM) of 0.777. For the same cell line, the relative viability (VE-821 + Linsitinib; first compound 2.53 µM) was 0.857 and the relative viability (VE-821 + Linsitinib; first compound 8 µM) was 0.553.

With H3255 the relative viability (VE-821 + Bortezomib; first compound 0.08 µM) was 0.799, the relative viability (VE-821 + Bortezomib; first compound 0.253 µM) was 0.882 and the relative viability (VE-821 + Bortezomib; first compound 0.8 µM) was 0.813. For the same cell line, the relative viability (VE-821 + Bortezomib; first compound 2.53 µM) was 0.853, the relative viability (VE-821 + Bortezomib; first compound 8 µM) was 0.906 and the relative viability (VE-821 + Phenformin; first compound 0.08 µM) was 0.377. For the same cell line, the relative viability (VE-821 + Phenformin; first compound 0.253 µM) was 0.338, the relative viability (VE-821 + Phenformin; first compound 0.8 µM) was 0.42 and the relative viability (VE-821 + Phenformin; first compound 2.53 µM) was 0.344. It also gave a relative viability (VE-821 + Phenformin; first compound 8 µM) of 0.383, a relative viability (Ruxolitinib + Dasatinib; first compound 0.08 µM) of 0.301 and a relative viability (Ruxolitinib + Dasatinib; first compound 0.253 µM) of 0.402. For the same cell line, the relative viability (Ruxolitinib + Dasatinib; first compound 0.8 µM) was 0.421, the relative viability (Ruxolitinib + Dasatinib; first compound 2.53 µM) was 0.282 and the relative viability (Ruxolitinib + Dasatinib; first compound 8 µM) was 0.31. The relative viability (VE-821 + Linsitinib; first compound 0.08 µM) was 1.08, the relative viability (VE-821 + Linsitinib; first compound 0.253 µM) was 1.05 and the relative viability (VE-821 + Linsitinib; first compound 0.8 µM) was 0.914. For the same cell line, the relative viability (VE-821 + Linsitinib; first compound 2.53 µM) was 1.06 and the relative viability (VE-821 + Linsitinib; first compound 8 µM) was 0.982.

NCI-H1755 showed a relative viability (VE-821 + Bortezomib; first compound 0.08 µM) of 1.01, a relative viability (VE-821 + Bortezomib; first compound 0.253 µM) of 0.95 and a relative viability (VE-821 + Bortezomib; first compound 0.8 µM) of 0.941. It also gave a relative viability (VE-821 + Bortezomib; first compound 2.53 µM) of 0.898, a relative viability (VE-821 + Bortezomib; first compound 8 µM) of 0.79 and a relative viability (VE-821 + Phenformin; first compound 0.08 µM) of 0.632. For the same cell line, the relative viability (VE-821 + Phenformin; first compound 0.253 µM) was 0.601, the relative viability (VE-821 + Phenformin; first compound 0.8 µM) was 0.546 and the relative viability (VE-821 + Phenformin; first compound 2.53 µM) was 0.615. It also gave a relative viability (VE-821 + Phenformin; first compound 8 µM) of 0.527, a relative viability (Ruxolitinib + Dasatinib; first compound 0.08 µM) of 0.473 and a relative viability (Ruxolitinib + Dasatinib; first compound 0.253 µM) of 0.394. For the same cell line, the relative viability (Ruxolitinib + Dasatinib; first compound 0.8 µM) was 0.472, the relative viability (Ruxolitinib + Dasatinib; first compound 2.53 µM) was 0.341 and the relative viability (Ruxolitinib + Dasatinib; first compound 8 µM) was 0.213. The relative viability (VE-821 + Linsitinib; first compound 0.08 µM) was 1.05, the relative viability (VE-821 + Linsitinib; first compound 0.253 µM) was 0.978 and the relative viability (VE-821 + Linsitinib; first compound 0.8 µM) was 0.795. For the same cell line, the relative viability (VE-821 + Linsitinib; first compound 2.53 µM) was 0.958 and the relative viability (VE-821 + Linsitinib; first compound 8 µM) was 0.898.

With LOU-NH91 the relative viability (VE-821 + Bortezomib; first compound 0.08 µM) was 0.529, the relative viability (VE-821 + Bortezomib; first compound 0.253 µM) was 0.906 and the relative viability (VE-821 + Bortezomib; first compound 0.8 µM) was 0.527. The relative viability (VE-821 + Bortezomib; first compound 2.53 µM) was 0.555, the relative viability (VE-821 + Bortezomib; first compound 8 µM) was 0.377 and the relative viability (VE-821 + Phenformin; first compound 0.08 µM) was 0.742. For the same cell line, the relative viability (VE-821 + Phenformin; first compound 0.253 µM) was 0.701, the relative viability (VE-821 + Phenformin; first compound 0.8 µM) was 0.693 and the relative viability (VE-821 + Phenformin; first compound 2.53 µM) was 0.706. For the same cell line, the relative viability (VE-821 + Phenformin; first compound 8 µM) was 0.734, the relative viability (Ruxolitinib + Dasatinib; first compound 0.253 µM) was 0.461 and the relative viability (Ruxolitinib + Dasatinib; first compound 0.8 µM) was 0.556. It also gave a relative viability (Ruxolitinib + Dasatinib; first compound 2.53 µM) of 0.496, a relative viability (Ruxolitinib + Dasatinib; first compound 8 µM) of 0.439 and a relative viability (VE-821 + Linsitinib; first compound 0.08 µM) of 0.94. It also gave a relative viability (VE-821 + Linsitinib; first compound 0.253 µM) of 0.949, a relative viability (VE-821 + Linsitinib; first compound 0.8 µM) of 0.989 and a relative viability (VE-821 + Linsitinib; first compound 2.53 µM) of 1.04. For the same cell line, the relative viability (VE-821 + Linsitinib; first compound 8 µM) was 0.898.

Source: the supplement of paper PMC10307832
